Read-outs that look alike come from different tables or passages of the source.
Molecular target: T1, F508delCFTR (Homo sapiens, UniProt P13569, DEL508-508)
T1 construct: expressed in transfected cells; host or cells: CFBE41o- (human lung derived epithelial cell line), doxycycline-inducible expression
Assay: Cell Surface Expression-Horse Radish Peroxidase (CSE-HRP) assay
Type: cell-based
Conditions: CFBE41o-F508delCFTR-HRP cells; for Maximum % activity (with co-corrector): with co-corrector (2 μM); for Maximum % activity (with co-corrector) / Maximum % activity (without co-corrector): normalized to on-plate positive control, highest concentration 20 μM
Method in brief: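 Surface F508delCFTR-HRP was read by luminol luminescence after 18–24 h compound exposure at 33 °C, without or with 2 μM co-corrector. Doses were eight 3-fold steps from 20 μM, in doxycycline-induced (0.5 μg/mL, 72 h) CFBE41o- cells. % activity was scaled to the on-plate 2 μM positive control minus DMSO; EC50 came from a variable-slope sigmoid fit.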

[1] = test compound without co-corrector, 18-24 hours at 33° C., read-out: EC50 (without co-corrector)
[2] = with co-corrector (2 μM of 3-[(2R,4R)-4-({[1-(2,2-difluoro-1,3-benzodioxol-5-yl)cyclopropyl]carbonyl}amino)-7-methoxy-3,4-dihydro-2H-chromen-2-yl]benzoic acid), read-out: EC50 (with co-corrector)

T1 sequence (P13569 with tags, fused parts or gaps DEL508-508): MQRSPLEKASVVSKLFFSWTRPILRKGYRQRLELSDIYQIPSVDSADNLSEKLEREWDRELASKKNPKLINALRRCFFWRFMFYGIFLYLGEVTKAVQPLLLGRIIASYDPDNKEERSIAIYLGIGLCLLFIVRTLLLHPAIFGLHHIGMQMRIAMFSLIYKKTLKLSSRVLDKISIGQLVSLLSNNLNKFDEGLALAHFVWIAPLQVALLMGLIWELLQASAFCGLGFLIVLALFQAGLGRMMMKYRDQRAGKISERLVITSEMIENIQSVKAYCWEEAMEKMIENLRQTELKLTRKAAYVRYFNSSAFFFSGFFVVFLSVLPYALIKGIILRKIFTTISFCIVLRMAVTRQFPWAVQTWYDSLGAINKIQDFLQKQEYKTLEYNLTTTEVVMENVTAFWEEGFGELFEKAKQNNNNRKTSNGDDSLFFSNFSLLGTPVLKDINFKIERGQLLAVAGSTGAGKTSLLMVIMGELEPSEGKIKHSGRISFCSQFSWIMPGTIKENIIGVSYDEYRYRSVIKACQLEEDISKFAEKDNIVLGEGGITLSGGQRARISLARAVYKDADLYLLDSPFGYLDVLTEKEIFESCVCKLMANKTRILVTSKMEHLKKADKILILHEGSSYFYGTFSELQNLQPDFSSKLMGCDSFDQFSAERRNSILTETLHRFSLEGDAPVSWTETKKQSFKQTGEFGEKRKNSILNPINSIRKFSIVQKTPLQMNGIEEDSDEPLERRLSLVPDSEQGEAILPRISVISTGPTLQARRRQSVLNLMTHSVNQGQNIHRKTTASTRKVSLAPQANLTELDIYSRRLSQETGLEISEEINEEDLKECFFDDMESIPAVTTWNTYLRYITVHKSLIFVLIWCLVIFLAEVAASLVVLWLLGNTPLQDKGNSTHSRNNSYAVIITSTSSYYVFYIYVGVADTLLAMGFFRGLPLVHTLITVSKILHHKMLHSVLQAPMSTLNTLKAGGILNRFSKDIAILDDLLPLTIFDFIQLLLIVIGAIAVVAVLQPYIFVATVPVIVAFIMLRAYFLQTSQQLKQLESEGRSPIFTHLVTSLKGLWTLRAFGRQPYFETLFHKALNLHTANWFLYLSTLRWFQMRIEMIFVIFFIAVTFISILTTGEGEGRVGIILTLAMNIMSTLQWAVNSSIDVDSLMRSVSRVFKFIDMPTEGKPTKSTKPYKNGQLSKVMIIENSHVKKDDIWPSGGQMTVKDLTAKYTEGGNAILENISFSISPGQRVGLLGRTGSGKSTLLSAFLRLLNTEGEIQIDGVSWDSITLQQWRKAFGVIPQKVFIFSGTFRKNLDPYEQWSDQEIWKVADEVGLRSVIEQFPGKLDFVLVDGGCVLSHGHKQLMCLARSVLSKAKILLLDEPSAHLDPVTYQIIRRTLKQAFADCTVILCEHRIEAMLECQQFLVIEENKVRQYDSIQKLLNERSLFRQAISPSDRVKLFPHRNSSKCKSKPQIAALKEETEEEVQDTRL

Row | EC50 [1] [nM] | EC50 [2] [nM] | Maximum % activity (with co-corrector) | Maximum % activity (without co-corrector) | SMILES
1 | 1000 to 10000 | 1000 to 10000 | +++ (≥350) | ++ (≥100 and <200) | COc1ncc(C(F)(F)F)cc1CO[C@H]1[C@H](C(C)(C)C)[C@@H](C(=O)O)N(C(=O)OC(C)C)[C@H]1c1ccccc1Cl [Example 99, (2S,3R,4S,5S)-3-tert-butyl-5-(2-chlorophenyl)-4-{[2-methoxy-5-(trifluoromethyl)pyridin-3-yl]methoxy}-1-{[(propan-2-yl)oxy]carbonyl}pyrrolidine-2-carboxylic acid]
2 | 1000 to 10000 | 1000 to 10000 | ++ (≥150 and <350) | + (<100) | COc1cnc(C2CCC2)cc1CO[C@H]1[C@H](C(C)(C)C)[C@@H](C(=O)O)N(C(=O)OC(C)C)[C@H]1c1ccccc1 [Example 100, (2S,3R,4S,5S)-3-tert-butyl-4-[(2-cyclobutyl-5-methoxypyridin-4-yl)methoxy]-5-phenyl-1-{[(propan-2-yl)oxy]carbonyl}pyrrolidine-2-carboxylic acid]
3 | 1000 to 10000 | 1000 to 10000 | +++ (≥350) | ++ (≥100 and <200) | COc1ncc(C(F)(F)F)cc1CO[C@H]1[C@H](C(C)(C)C)[C@@H](C(=O)O)N(C(=O)OC(C)C)[C@H]1c1ccccc1C1CCC1 [Example 101, (2S,3R,4S,5S)-3-tert-butyl-5-(2-cyclobutylphenyl)-4-{[2-methoxy-5-(trifluoromethyl)pyridin-3-yl]methoxy}-1-{[(propan-2-yl)oxy]carbonyl}pyrrolidine-2-carboxylic acid]
4 | 1000 to 10000 | 1000 to 10000 | ++ (≥150 and <350) | + (<100) | COc1ncc(C(F)(F)F)cc1CO[C@H]1[C@H](C(C)(C)C)[C@@H](C(=O)O)N(C(=O)[C@H]2CCCO2)[C@H]1c1ccccc1C(C)C [Example 102, (2S,3R,4S,5S)-3-tert-butyl-4-{[2-methoxy-5-(trifluoromethyl)pyridin-3-yl]methoxy}-1-[(2R)-oxolane-2-carbonyl]-5-[2-(propan-2-yl)phenyl]pyrrolidine-2-carboxylic acid]
5 | 1000 to 10000 | < 1000 | +++ (≥350) | ++ (≥100 and <200) | COc1ncc(C(F)(F)F)cc1CO[C@H]1[C@H](C(C)(C)C)[C@@H](C(=O)O)N(C(=O)[C@@H]2CCCCO2)[C@H]1c1ccccc1Cl [Example 103, (2S,3R,4S,5S)-3-tert-butyl-5-(2-chlorophenyl)-4-{[2-methoxy-5-(trifluoromethyl)pyridin-3-yl]methoxy}-1-[(2S)-oxane-2-carbonyl]pyrrolidine-2-carboxylic acid]
6 | 1000 to 10000 | 1000 to 10000 | +++ (≥350) | ++ (≥100 and <200) | COc1ncc(C(F)(F)F)cc1CO[C@H]1[C@H](C(C)(C)C)[C@@H](C(=O)O)N(C(=O)[C@H]2CCCCO2)[C@H]1c1ccccc1Cl [Example 104, (2S,3R,4S,5S)-3-tert-butyl-5-(2-chlorophenyl)-4-{[2-methoxy-5-(trifluoromethyl)pyridin-3-yl]methoxy}-1-[(2R)-oxane-2-carbonyl]pyrrolidine-2-carboxylic acid]
7 | < 1000 | < 1000 | +++ (≥350) | ++ (≥100 and <200) | COc1ncc(C(F)(F)F)cc1CO[C@H]1[C@H](C(C)(C)C)[C@@H](C(=O)O)N(C(=O)OC(C)C)[C@H]1c1ccccc1OC(C)C [Example 105, (2S,3R,4S,5S)-3-tert-butyl-4-{[2-methoxy-5-(trifluoromethyl)pyridin-3-yl]methoxy}-1-{[(propan-2-yl)oxy]carbonyl}-5-{2-[(propan-2-yl)oxy]phenyl}pyrrolidine-2-carboxylic acid]
8 | 1000 to 10000 | 1000 to 10000 | ++ (≥150 and <350) | + (<100) | COc1nc2ccccc2cc1CO[C@H]1[C@H](C(C)(C)C)[C@@H](C(=O)O)N(C(=O)OC(C)C)[C@H]1c1ccccc1 [Example 106, (2S,3R,4S,5S)-3-tert-butyl-4-[(2-methoxyquinolin-3-yl)methoxy]-5-phenyl-1-{[(propan-2-yl)oxy]carbonyl}pyrrolidine-2-carboxylic acid]
9 | 1000 to 10000 | 1000 to 10000 | ++ (≥150 and <350) | + (<100) | CC(C)OC(=O)N1[C@H](C(=O)O)[C@@H](C(C)(C)C)[C@H](OCc2cc(C(F)(F)F)cnc2O)[C@@H]1c1ccccc1 [Example 107, (2S,3R,4S,5S)-3-tert-butyl-4-{[2-hydroxy-5-(trifluoromethyl)pyridin-3-yl]methoxy}-5-phenyl-1-{[(propan-2-yl)oxy]carbonyl}pyrrolidine-2-carboxylic acid]
10 | 1000 to 10000 | 1000 to 10000 | +++ (≥350) | ++ (≥100 and <200) | COc1ncc(C(F)(F)F)cc1CO[C@H]1[C@H](C(C)(C)C)[C@@H](C(=O)O)N(C(=O)OC(C)C)[C@H]1c1ccccc1C1=CCOCC1 [Example 108, (2S,3R,4S,5S)-3-tert-butyl-5-[2-(3,6-dihydro-2H-pyran-4-yl)phenyl]-4-{[2-methoxy-5-(trifluoromethyl)pyridin-3-yl]methoxy}-1-{[(propan-2-yl)oxy]carbonyl}pyrrolidine-2-carboxylic acid]
11 | 1000 to 10000 | 1000 to 10000 | ++ (≥150 and <350) | + (<100) | COc1ncc(C(F)(F)F)cc1CO[C@H]1[C@H](C(C)(C)C)[C@@H](C(=O)O)N(C(=O)[C@H]2CCOC2)[C@H]1c1ccccc1C(C)C [Example 109, (2S,3R,4S,5S)-3-tert-butyl-4-{[2-methoxy-5-(trifluoromethyl)pyridin-3-yl]methoxy}-1-[(3S)-oxolane-3-carbonyl]-5-[2-(propan-2-yl)phenyl]pyrrolidine-2-carboxylic acid]
12 | 1000 to 10000 | 1000 to 10000 | +++ (≥350) | ++ (≥100 and <200) | COc1ncc(C(F)(F)F)cc1CO[C@H]1[C@H](C(C)(C)C)[C@@H](C(=O)O)N(C(=O)C2CCOCC2)[C@H]1c1ccccc1C(C)C [Example 110, (2S,3R,4S,5S)-3-tert-butyl-4-{[2-methoxy-5-(trifluoromethyl)pyridin-3-yl]methoxy}-1-(oxane-4-carbonyl)-5-[2-(propan-2-yl)phenyl]pyrrolidine-2-carboxylic acid]
13 | 1000 to 10000 | 1000 to 10000 | +++ (≥350) | ++ (≥100 and <200) | COc1ncc(C(F)(F)F)cc1CO[C@H]1[C@H](C(C)(C)C)[C@@H](C(=O)O)N(C(=O)[C@@H]2CCOC2)[C@H]1c1ccccc1C(C)C [Example 111, (2S,3R,4S,5S)-3-tert-butyl-4-{[2-methoxy-5-(trifluoromethyl)pyridin-3-yl]methoxy}-1-[(3R)-oxolane-3-carbonyl]-5-[2-(propan-2-yl)phenyl]pyrrolidine-2-carboxylic acid]
14 | 1000 to 10000 | < 1000 | +++ (≥350) | ++ (≥100 and <200) | COc1ncc(C(F)(F)F)cc1CO[C@H]1[C@H](C(C)(C)C)[C@@H](C(=O)O)N(C(=O)[C@@H]2CCCO2)[C@H]1c1ccccc1C1CC1 [Example 112, (2S,3R,4S,5S)-3-tert-butyl-5-(2-cyclopropylphenyl)-4-{[2-methoxy-5-(trifluoromethyl)pyridin-3-yl]methoxy}-1-[(2S)-oxolane-2-carbonyl]pyrrolidine-2-carboxylic acid]
15 | 1000 to 10000 | 1000 to 10000 | ++ (≥150 and <350) | + (<100) | COc1ccc(C(F)(F)F)cc1CO[C@H]1[C@H](C(C)(C)C)[C@@H](C(=O)O)N(C(=O)[C@@H]2CCCO2)[C@H]1c1cccnc1C(F)(F)F [Example 113, (2S,3R,4S,5S)-3-tert-butyl-4-{[2-methoxy-5-(trifluoromethyl)phenyl]methoxy}-1-[(2S)-oxolane-2-carbonyl]-5-[2-(trifluoromethyl)pyridin-3-yl]pyrrolidine-2-carboxylic acid]
16 | > 10000 | > 10000 | + (<150) | + (<100) | COc1ccc(C(F)(F)F)cc1CO[C@@H]1[C@H](C(C)(C)C)[C@@H](C(=O)O)N(C(=O)[C@@H]2CCCO2)[C@H]1c1cccnc1C(F)(F)F [Example 114, (2S,3R,4R,5S)-3-tert-butyl-4-{[2-methoxy-5-(trifluoromethyl)phenyl]methoxy}-1-[(2S)-oxolane-2-carbonyl]-5-[2-(trifluoromethyl)pyridin-3-yl]pyrrolidine-2-carboxylic acid]
17 | 1000 to 10000 | < 1000 | +++ (≥350) | ++ (≥100 and <200) | COc1ncc(C(F)(F)F)cc1CO[C@H]1[C@H](C(C)(C)C)[C@@H](C(=O)O)N(C(=O)[C@@H]2CCCO2)[C@H]1c1ccccc1Cl [Example 115, (2S,3R,4S,5S)-3-tert-butyl-5-(2-chlorophenyl)-4-{[2-methoxy-5-(trifluoromethyl)pyridin-3-yl]methoxy}-1-[(2S)-oxolane-2-carbonyl]pyrrolidine-2-carboxylic acid]

Reference: patent publication US10399940B2, “Substituted pyrrolidines and methods of use” (AbbVie S.à.r.l., priority 2016, dated 2019)
